Experimental data from paper PMC8297771 (PLoS Pathogens, 2021).

Assays:
[1] = Microsomal stability determination; format: in vitro ADME, animal and human; conditions: human, liver microsomes; all tested species; read-out: microsomal stability T1/2
Procedure: A liver microsome (LM) stability assay was […] of incubation at 0, 10, 20, 30 and 60 min with a […] STP0404 initial concentration. All plates were shaken and centrifuged at 3200 x g for 20 mins. Then 100 μL of supernatant was taken from each well and diluted with 300 μL pure water before analyzed by LC/MS/MS. Animal and human liver microsomes were purchased from Wuxi AppTec, Xenotech or Corning and stored in a freezer (lower than -60°C) before use (Wuxi AppTec, China).

[2] = Safety pharmacology: effects on the respiratory system in rats; format: in vivo; conditions: single oral 100, 300 and 600 mg/kg
Procedure: Effects on the Respiratory System in Rats (Study no. YL18404). Four groups of eight male rats were given a single oral administration of STP0404 at doses of 100, 300 and 600 mg/kg. STP0404 was administered as a suspension in 0.5% MC in a volume of 10 mL/kg. […] Measurements were conducted at pre-dosing and 0.5, 1, 3, 6 12 and 24 hrs post-dosing, and respiratory rate, tidal volume and minute volume were investigated (INA Research, Japan). Effects on the Central Nervous System in Rats (Study no. YL18405). Four groups of six male rats were given a single oral administration of STP0404 at doses of 0 (vehicle), 100, 300 and 600 mg/kg. The test article was administered as a suspension in 0.5% MC in a volume of 10 mL/kg. […] Blinded observations were conducted pre-dosing and 0.5, 1, 3, 6, 12 and 24 hrs post-dosing on rats body temperature, pupil size, landing foot-splay and grip strength in functional observational battery. Effects on the Cardiovascular System in Dogs (Study no. YL18406). STP0404 at dose levels of 30, 60 and 90 mg/kg were administered orally (by capsules) to four male Beagle dogs in a design with 7-day intervals between doses. Heart rate, blood pressure (systolic, diastolic and mean) and electrocardiographic (ECG) parameters (PR, QT and QTc intervals and QRS duration) were evaluated at pre-dosing and 0.5, 1, 2, 4, 8 and 24 hrs post-dosing. […]

[3] = Plasma stability determination; format: in vitro ADME, human, monkey, dog, rat and mouse; conditions: all tested species; 5 μM, 60 mins, remaining percentage
Procedure: STP0404 was incubated with human, monkey, dog, rat and mouse plasma. These incubations were carried out at a test concentration of 5 μM with an incubation period of 60 mins. Samples of human, monkey, dog, rat and mouse were taken at 0, 15, 30, 45, 60 mins. And stop the reaction by taking 50 μL aliquots to 400 μL acetonitrile with internal standard. Propantheline was used as positive control for human, monkey and mouse plasma and mevinolin as the positive control for dog and rat plasma. The remaining percentage was tested. This test was conducted by a fee to service through Pharmaron (Beijing, China).

[4] = system: HIV-1_89.6 particles produced from 293 T cells; assay: TEM analysis of HIV-1 particle morphology; format: cell-based; conditions: viruses produced from treated 293T cells; 1 μM
Procedure: 293T cells were transfected with plasmids containing proviral clones encoding WT HIV-1 89.6 using polyethylenimine (PEI). After 6 hrs, cells were rinsed with DPBS gently, and then cells were resuspended in a fresh media with or without the inhibitor (1 μM, final). At 96 hrs post-transfection, cell cultures were centrifuged (1,800 xg) and filtered through 0.45 μm filter to remove cells and any cell debris, and viruses were harvested by centrifugation at 100,000 xg for 1.5 hrs in the presence of TNE sucrose buffer (5% sucrose, final). The pellets were fixed in a buffer containing 0.1 M Na cacodylate at pH 7.4 and 2.5% Glutaraldehyde, and submitted to Emory Integrated Core Facilities for sectioning, followed by TEM. Virus pellets were dehydrated in a graduated ethanol series and embedded in Epon resin. Ultrathin sections were stained using uranyl acetate and observed under a transmission electron microscope (JEOL JEM-1400), equipped with Gatan CCD camera at the Emory Integrated Electron Microscopy Core. Total of approximately 1,000 virions each (with or without the inhibitor treatment) were captured in the images obtained for comparisons in virion morphology.

[5] = system: HIV-1NL4-3; assay: In vitro anti-viral assay in human PBMCs (RT activity readout); format: cell-based
Procedure: For the assay with human PBMCs, PHA stimulated cells from at least two pooled healthy were infected with HIV-1 strains in 96-well plates. Test drug dilutions, which were prepared at a 2X concentration in microtiter tubes and 100 μL of each concentration (nine total concentrations), were placed in appropriate wells using the standard format. 50 μL of a predetermined dilution of virus stock was placed in each test well (final MOI ≅ 0.1). The PBMC cultures were maintained for 7 days following infection at 37 °C, 5% CO2. After this period, cell-free supernatant samples were collected for analysis of reverse transcriptase (RT) activity. All assays were conducted in triplicates. For RT assay, a microtiter plate-based reverse transcriptase (RT) reaction was utilized (Buckheit et al., AIDS Research and Human Retroviruses 7:295–302, 1991). Tritiated thymidine triphosphate (^3H-TTP, 80 Ci/mmol, NEN) is received in 1:1 dH2O: Ethanol at 1 mCi/mL. Poly rA:oligo dT template:primer (GE Healthcare) was prepared as a stock solution by combining 150 μL poly rA (20 mg/mL) with 0.5 mL oligo dT (20 units/mL) and 5.35 mL sterile dH2O followed by aliquoting (1.0 mL) and storage at—20°C. The RT reaction buffer was prepared fresh on a daily basis and consisted of 125 μL 1.0 M EGTA, 125 μL dH2O, 125 μL 20% Triton X100, 50 μL 1.0 M Tris (pH 7.4), 50 μL 1.0 M DTT, and 40 μL 1.0 M MgCl2. The final reaction mixture was prepared by combining 1 part ^3H-TTP, 4 parts dH2O, 2.5 parts poly rA:oligo dT stock and 2.5 parts reaction buffer. Ten microliters of this reaction mixture were placed in a round bottom microtiter plate and 15 μL of virus containing supernatant is added and mixed. The plate was incubated at 37°C for 60 mins. Following incubation, the reaction volume was spotted onto DE81 filter-mats (Wallac), washed 5 times for 5 mins each in a 5% sodium phosphate buffer or 2X SSC (Life Technologies). Next they were washed 2 times for 1 min each in distilled water, 2 times for 1 min each in 70% ethanol, and then dried. Incorporated radioactivity (counts per min, CPM) was quantified using standard liquid scintillation techniques. These PBMC analysis was conducted by fee to service through Southern Research Institute (Frederick, MD, USA). The IC50 were analyzed using GraphPad Prism (Version 9) and presented as means ± S.D. of the triplicates.

## Cc1nc2c(c(C)c(C)n2Cc2cnn(C)c2)c(-c2ccc(Cl)cc2)c1[C@H](OC(C)(C)C)C(=O)O [STP0404]
[1]
  half-life at 1 μL: > 2.22 h
[2]
  safety pharmacology concerns, respiratory system: did not induce any safety pharmacology concerns
[3]
  plasma stability: ~100%
[4]
  localization of viral RNA genomes in virus particles (TEM): viral RNA genomes outside of the capsid
[5]; Human immunodeficiency virus 1, NL43, PBMC
  IC50: 0.41 ± 0.43 nM
[5]; human PBMCs, NL4-3, minimal TI from IC50 and 10 μM
  TI (TC50 / IC50): >24,000
